Experimental data as given in patent publication US4103019A, “Triterpene derivatives” (Laboratorios Landerlan, S. A., priority 1975, dated 1978).

What was measured:
[1] = tested on: ulcers (reserpine); assay: Anti-ulcer action, reserpine-induced ulcers; format: in vivo, rats; conditions: intra-peritoneal
Excerpt: Dose mg./Kg. Inhibition %
Reserpine 5 Intra-peritoneal

[2] = tested on: different artificially invoked conditions; assay: Neurotropic, musculotropic, antihistaminic, anti-ulcer and healing activity in different artificially invoked conditions; format: in vivo; conditions: different artificially invoked conditions in mice, rats, Guinea pigs, rabbits and dogs
[3] = tested on: ulcers (Psychosomatic Frustration, M. Bonfils); assay: Anti-ulcer action, psychosomatic frustration ulcers (M. Bonfils); format: in vivo, rats; conditions: oral
[4] = tested on: ulcers (Pyloric Ligature, M. Shay); assay: Anti-ulcer action, pyloric ligature ulcers (M. Shay); format: in vivo, rats
[5] = tested on: ulcers (phenylbutazone); assay: Anti-ulcer action, phenylbutazone-induced ulcers; format: in vivo, rats; conditions: oral

Structure (SMILES): CC1(C(=O)OCC2CCC[N+]2(C)C)CCC2(C)CCC3(C)C(=CC(=O)C4C5(C)CCC(O)C(C)(C)C5CCC43C)C2C1 (centres unmarked) [Example 3, 2-(glycyrrhetinoylmethyl) N-methyl pyrrolidine methylsulfate]
- Inhibition % ([1]; 5 mg./Kg.): 42%
- Inhibition % ([1]; 10 mg./Kg.): 25%
- Inhibition % ([1]; 25 mg./Kg.): 25%
- activity as neurotropic, musculotropic antihistaminic, anti-ulcer and healing agents [2]: outstanding activity
- Inhibition % ([3]; 5 mg./Kg.): 42%
- Inhibition % ([3]; 10 mg./Kg.): 33%
- Inhibition % ([3]; 20 mg./Kg.): 18%
- Inhibition % ([4]; 2.5 mg./Kg., intra-peritoneal): 52%
- Inhibition % ([4]; 5 mg./Kg., intra-dermal): 36%
- Inhibition % ([4]; 10 mg./Kg., intra-peritoneal): 69%
- Inhibition % ([4]; 15 mg./Kg., intra-peritoneal): 48%
- Inhibition % ([4]; 25 mg./Kg., intra-peritoneal): 69%

Structure (SMILES): CC1(C(=O)OCC2CCC[N+]2(C)C)CCC2(C)CCC3(C)C(=CC(=O)C4C5(C)CCC(O)C(C)(C)C5CCC43C)C2C1 (centres unmarked) [Example 4, 2(glycyrrhetinoyl methyl) N-methylpyrrolidine methylbromide]
- Inhibition % ([1]; 5 mg./Kg.): 8%
- Inhibition % ([1]; 10 mg./Kg.): 47%
- Inhibition % ([1]; 25 mg./Kg.): 13%
- activity as neurotropic, musculotropic antihistaminic, anti-ulcer and healing agents [2]: outstanding activity
- Inhibition % ([5]; 5 mg./Kg.): 22%
- Inhibition % ([5]; 10 mg./Kg.): 23%
- Inhibition % ([3]; 5 mg./Kg.): 52%
- Inhibition % ([3]; 10 mg./Kg.): 43%
- Inhibition % ([3]; 50 mg./Kg.): 25%
- Inhibition % ([4]; 2.5 mg./Kg., intra-dermal): 27%
- Inhibition % ([4]; 5 mg./Kg., intra-dermal): 29%
- Inhibition % ([4]; 5 mg./Kg., intra-peritoneal): 65%
- Inhibition % ([4]; 10 mg./Kg., intra-dermal): 24%
- Inhibition % ([4]; 10 mg./Kg., intra-peritoneal): 55%
